Experimental data reported in US20200392079A1, “Compound, Photopolymerization Initiator Containing Said Compound, and Photosensitive Resin Composition Containing Said Photopolymerization Initiator” (Nippon Kayaku Kabushiki Kaisha, priority 2018, published 2020).

Assay: Solubility evaluation experiment (time required for dissolving in solvent)
Assay type: physicochemical
Method: After the components were mixed in a glass container in accordance with the formulation amounts (parts by mass) listed in Table 1, the solution was placed on a hot plate at 50° C. and stirred with a glass bar. The time (minute) required for dissolving was measured to evaluate the solubility.

[1] = 0.50 parts initiator in 1.00 parts (D-1) Cyclopentanon, hot plate 50° C., stirred with glass bar
[2] = 0.50 parts initiator in (D-2) 1-methoxy-2-propanol (PGME), 1.00 parts (1.43 parts for C-5), 50° C.
[3] = 0.50 parts initiator in (D-3) Polyethylene gylcol monomethylether acetate (PGMEA), 1.00-1.67 parts, 50° C.
[4] = 0.50 parts initiator in (D-4) 3-betoxymethanol, 1.11 parts (>5 parts for C-5), 50° C.

Row | Compound | Stirring time (time required for dissolving) [1] [min] | Stirring time (time required for dissolving) [2] [min] | Stirring time (time required for dissolving) [3] [min] | Stirring time (time required for dissolving) [4] [min]
1 | C=C(C)C(=O)OCCNC(=O)OCC(O)(C(=O)c1ccc(SC)cc1)c1ccc(SC)cc1 (centres unmarked) [Initiator C-1] | 10 | 19 | 25 | 40
2 | C=CC(=O)OCCNC(=O)OCC(O)(C(=O)c1ccc(SC)cc1)c1ccc(SC)cc1 (centres unmarked) [Initiator C-2] | 15 | 12 | 20 | 40
